Experimental data as given in publication PMC6429222, “The Oligomeric State of the Plasma Membrane H^+-ATPase from Kluyveromyces lactis” (Molecules, 2019).
Where “and” joins values, the source holds several entries; their conditions need not be identical. Identical values can stand only once.

T1: plasma membrane H^+-ATPase hexamer, free (small MAS, Peak 2) (Kluyveromyces lactis, UniProt P49380)
T1 construct: gene PMA1; Superose 6 Peak 2, mainly free hexamers with minor monomer, dimer, tetramer; monomer ~100 kDa; no tag
T1 sequence (P49380 1-899): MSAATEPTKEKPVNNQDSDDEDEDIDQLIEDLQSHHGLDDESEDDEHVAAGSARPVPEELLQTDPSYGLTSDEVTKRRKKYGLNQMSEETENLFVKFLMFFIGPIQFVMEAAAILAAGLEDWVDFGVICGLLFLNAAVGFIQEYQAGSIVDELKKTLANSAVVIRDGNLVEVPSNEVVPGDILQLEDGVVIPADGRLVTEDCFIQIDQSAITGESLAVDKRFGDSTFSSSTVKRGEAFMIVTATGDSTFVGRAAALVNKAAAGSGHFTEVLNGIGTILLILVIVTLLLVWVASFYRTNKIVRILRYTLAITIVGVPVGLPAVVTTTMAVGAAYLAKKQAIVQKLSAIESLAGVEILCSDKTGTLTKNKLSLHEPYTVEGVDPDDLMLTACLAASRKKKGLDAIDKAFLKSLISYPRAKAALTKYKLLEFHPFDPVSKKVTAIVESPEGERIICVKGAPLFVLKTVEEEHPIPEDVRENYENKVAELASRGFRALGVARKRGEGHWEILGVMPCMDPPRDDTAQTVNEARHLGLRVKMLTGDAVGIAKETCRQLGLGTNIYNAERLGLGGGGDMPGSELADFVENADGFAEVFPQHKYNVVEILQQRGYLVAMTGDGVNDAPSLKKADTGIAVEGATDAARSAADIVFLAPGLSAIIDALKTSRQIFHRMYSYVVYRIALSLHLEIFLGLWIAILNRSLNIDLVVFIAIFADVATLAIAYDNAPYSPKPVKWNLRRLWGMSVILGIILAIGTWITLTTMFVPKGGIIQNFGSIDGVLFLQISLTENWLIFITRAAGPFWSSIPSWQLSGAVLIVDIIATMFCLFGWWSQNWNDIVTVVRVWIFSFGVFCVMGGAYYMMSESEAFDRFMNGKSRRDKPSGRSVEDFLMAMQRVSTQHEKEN

T2: plasma membrane H^+-ATPase hexamer, aggregated (large MAS, Peak 1) (Kluyveromyces lactis, UniProt P49380)
T2 construct: gene PMA1; Superose 6 Peak 1, aggregated hexamers; monomer ~100 kDa; no tag
T2 sequence (P49380 1-899): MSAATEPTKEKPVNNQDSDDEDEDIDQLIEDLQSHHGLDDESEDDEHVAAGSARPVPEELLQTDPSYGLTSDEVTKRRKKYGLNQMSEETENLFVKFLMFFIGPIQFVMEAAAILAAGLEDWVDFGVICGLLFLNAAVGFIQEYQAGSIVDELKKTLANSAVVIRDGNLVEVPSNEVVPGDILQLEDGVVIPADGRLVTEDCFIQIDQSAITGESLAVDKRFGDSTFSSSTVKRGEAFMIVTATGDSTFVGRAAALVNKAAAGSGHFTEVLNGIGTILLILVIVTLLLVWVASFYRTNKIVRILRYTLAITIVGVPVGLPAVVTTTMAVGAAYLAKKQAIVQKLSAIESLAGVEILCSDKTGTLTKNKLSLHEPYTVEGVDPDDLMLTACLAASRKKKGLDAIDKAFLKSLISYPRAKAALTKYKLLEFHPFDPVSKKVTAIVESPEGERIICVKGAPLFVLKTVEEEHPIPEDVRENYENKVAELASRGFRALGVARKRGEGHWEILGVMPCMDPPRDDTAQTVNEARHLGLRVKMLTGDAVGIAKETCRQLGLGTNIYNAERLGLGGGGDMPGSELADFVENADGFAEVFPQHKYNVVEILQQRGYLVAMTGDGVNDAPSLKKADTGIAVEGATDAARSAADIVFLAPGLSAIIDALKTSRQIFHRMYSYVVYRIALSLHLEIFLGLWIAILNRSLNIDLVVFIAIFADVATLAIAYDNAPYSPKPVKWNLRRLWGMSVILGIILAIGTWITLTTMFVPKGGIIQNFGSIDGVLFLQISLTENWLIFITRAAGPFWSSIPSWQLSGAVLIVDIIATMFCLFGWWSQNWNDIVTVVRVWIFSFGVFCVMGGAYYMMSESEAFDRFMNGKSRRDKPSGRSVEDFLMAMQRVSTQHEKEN


How the values were obtained:
[1] = molecular target: T1, plasma membrane H^+-ATPase hexamer, free (small MAS, Peak 2); experiment: intrinsic Trp fluorescence quenching titration, Hill-type fit; assay type: binding
[2] = molecular target: T2, plasma membrane H^+-ATPase hexamer, aggregated (large MAS, Peak 1); experiment: as above; assay type: binding
purified protein = substrate: Nc1ncnc2c1ncn2[C@@H]1O[C@H](COP(=O)(O)OP(=O)(O)OP(=O)(O)O)[C@@H](O)[C@H]1O; experiment: purified protein; assay type: biochemical, Kluyveromyces lactis; conditions: 25 °C, cooperative
[3] = molecular target: the molecule itself; experiment: native gel or EMSA; BN-PAGE of SEC Peak 2 fractions (33-37); 4-15% gradient gel with 0.1 M trehalose; sample buffer 25 mM imidazole, 0.3 M trehalose, 0.25% DDM, 0.025% Coomassie blue, pH 7.0; 4 °C; silver stain
[4] = molecular target: the molecule itself; experiment: native gel or EMSA; BN-PAGE of SEC Peak 1 fractions (23-26); 4-15% gradient gel with 0.1 M trehalose; sample buffer 25 mM imidazole, 0.3 M trehalose, 0.25% DDM, 0.025% Coomassie blue, pH 7.0; 4 °C; silver stain

| Molecule | Kd [1] | Kd [2] | also measured |
| --- | --- | --- | --- |
| Nc1ncnc2c1ncn2[C@@H]1O[C@H](COP(=O)(O)OP(=O)(O)O)[C@@H](O)[C@H]1O [ADP] | 190 ± 13.9 µM | 136 ± 7.8 µM |  |
| Nc1ncnc2c1ncn2[C@@H]1O[C@H](COP(=O)(O)OP(=O)(O)CP(=O)(O)O)[C@@H](O)[C@H]1O [AMP-PCP] | 106 ± 12.6 µM | 73.3 ± 5.8 µM |  |
| plasma membrane H^+-ATPase hexamer, aggregated (large MAS, Peak 1) (Kluyveromyces lactis NRRL Y-1140) (protein, Superose 6 Peak 1, aggregated hexamers; monomer ~100 kDa; no tag) MSAATEPTKEKPVNNQDSDDEDEDIDQLIEDLQSHHGLDDESEDDEHVAAGSARPVPEELLQTDPSYGLTSDEVTKRRKKYGLNQMSEETENLFVKFLMFFIGPIQFVMEAAAILAAGLEDWVDFGVICGLLFLNAAVGFIQEYQAGSIVDELKKTLANSAVVIRDGNLVEVPSNEVVPGDILQLEDGVVIPADGRLVTEDCFIQIDQSAITGESLAVDKRFGDSTFSSSTVKRGEAFMIVTATGDSTFVGRAAALVNKAAAGSGHFTEVLNGIGTILLILVIVTLLLVWVASFYRTNKIVRILRYTLAITIVGVPVGLPAVVTTTMAVGAAYLAKKQAIVQKLSAIESLAGVEILCSDKTGTLTKNKLSLHEPYTVEGVDPDDLMLTACLAASRKKKGLDAIDKAFLKSLISYPRAKAALTKYKLLEFHPFDPVSKKVTAIVESPEGERIICVKGAPLFVLKTVEEEHPIPEDVRENYENKVAELASRGFRALGVARKRGEGHWEILGVMPCMDPPRDDTAQTVNEARHLGLRVKMLTGDAVGIAKETCRQLGLGTNIYNAERLGLGGGGDMPGSELADFVENADGFAEVFPQHKYNVVEILQQRGYLVAMTGDGVNDAPSLKKADTGIAVEGATDAARSAADIVFLAPGLSAIIDALKTSRQIFHRMYSYVVYRIALSLHLEIFLGLWIAILNRSLNIDLVVFIAIFADVATLAIAYDNAPYSPKPVKWNLRRLWGMSVILGIILAIGTWITLTTMFVPKGGIIQNFGSIDGVLFLQISLTENWLIFITRAAGPFWSSIPSWQLSGAVLIVDIIATMFCLFGWWSQNWNDIVTVVRVWIFSFGVFCVMGGAYYMMSESEAFDRFMNGKSRRDKPSGRSVEDFLMAMQRVSTQHEKEN |  |  | K0.5 (purified protein; Hill n = 1.98 ± 0.21): 329 ± 19 µM |
| plasma membrane H^+-ATPase hexamer, free (small MAS, Peak 2) (Kluyveromyces lactis NRRL Y-1140) (protein, Superose 6 Peak 2, mainly free hexamers with minor monomer, dimer, tetramer; monomer ~100 kDa; no tag) MSAATEPTKEKPVNNQDSDDEDEDIDQLIEDLQSHHGLDDESEDDEHVAAGSARPVPEELLQTDPSYGLTSDEVTKRRKKYGLNQMSEETENLFVKFLMFFIGPIQFVMEAAAILAAGLEDWVDFGVICGLLFLNAAVGFIQEYQAGSIVDELKKTLANSAVVIRDGNLVEVPSNEVVPGDILQLEDGVVIPADGRLVTEDCFIQIDQSAITGESLAVDKRFGDSTFSSSTVKRGEAFMIVTATGDSTFVGRAAALVNKAAAGSGHFTEVLNGIGTILLILVIVTLLLVWVASFYRTNKIVRILRYTLAITIVGVPVGLPAVVTTTMAVGAAYLAKKQAIVQKLSAIESLAGVEILCSDKTGTLTKNKLSLHEPYTVEGVDPDDLMLTACLAASRKKKGLDAIDKAFLKSLISYPRAKAALTKYKLLEFHPFDPVSKKVTAIVESPEGERIICVKGAPLFVLKTVEEEHPIPEDVRENYENKVAELASRGFRALGVARKRGEGHWEILGVMPCMDPPRDDTAQTVNEARHLGLRVKMLTGDAVGIAKETCRQLGLGTNIYNAERLGLGGGGDMPGSELADFVENADGFAEVFPQHKYNVVEILQQRGYLVAMTGDGVNDAPSLKKADTGIAVEGATDAARSAADIVFLAPGLSAIIDALKTSRQIFHRMYSYVVYRIALSLHLEIFLGLWIAILNRSLNIDLVVFIAIFADVATLAIAYDNAPYSPKPVKWNLRRLWGMSVILGIILAIGTWITLTTMFVPKGGIIQNFGSIDGVLFLQISLTENWLIFITRAAGPFWSSIPSWQLSGAVLIVDIIATMFCLFGWWSQNWNDIVTVVRVWIFSFGVFCVMGGAYYMMSESEAFDRFMNGKSRRDKPSGRSVEDFLMAMQRVSTQHEKEN |  |  | K0.5 (purified protein; Hill n = 1.82 ± 0.22): 364 ± 28 µM |
| plasma membrane H^+-ATPase from Kluyveromyces lactis (enzyme, UniProt P49380 1-899, looked up, plasma membrane H^+-ATPase (Pma1) of Kluyveromyces lactis, endogenous enzyme; monomer band of ~100 kDa on SDS-PAGE; also called Pma1; H^+-ATPase hexamer; source: also in isolated plasma membranes treated with DDM) MSAATEPTKEKPVNNQDSDDEDEDIDQLIEDLQSHHGLDDESEDDEHVAAGSARPVPEELLQTDPSYGLTSDEVTKRRKKYGLNQMSEETENLFVKFLMFFIGPIQFVMEAAAILAAGLEDWVDFGVICGLLFLNAAVGFIQEYQAGSIVDELKKTLANSAVVIRDGNLVEVPSNEVVPGDILQLEDGVVIPADGRLVTEDCFIQIDQSAITGESLAVDKRFGDSTFSSSTVKRGEAFMIVTATGDSTFVGRAAALVNKAAAGSGHFTEVLNGIGTILLILVIVTLLLVWVASFYRTNKIVRILRYTLAITIVGVPVGLPAVVTTTMAVGAAYLAKKQAIVQKLSAIESLAGVEILCSDKTGTLTKNKLSLHEPYTVEGVDPDDLMLTACLAASRKKKGLDAIDKAFLKSLISYPRAKAALTKYKLLEFHPFDPVSKKVTAIVESPEGERIICVKGAPLFVLKTVEEEHPIPEDVRENYENKVAELASRGFRALGVARKRGEGHWEILGVMPCMDPPRDDTAQTVNEARHLGLRVKMLTGDAVGIAKETCRQLGLGTNIYNAERLGLGGGGDMPGSELADFVENADGFAEVFPQHKYNVVEILQQRGYLVAMTGDGVNDAPSLKKADTGIAVEGATDAARSAADIVFLAPGLSAIIDALKTSRQIFHRMYSYVVYRIALSLHLEIFLGLWIAILNRSLNIDLVVFIAIFADVATLAIAYDNAPYSPKPVKWNLRRLWGMSVILGIILAIGTWITLTTMFVPKGGIIQNFGSIDGVLFLQISLTENWLIFITRAAGPFWSSIPSWQLSGAVLIVDIIATMFCLFGWWSQNWNDIVTVVRVWIFSFGVFCVMGGAYYMMSESEAFDRFMNGKSRRDKPSGRSVEDFLMAMQRVSTQHEKEN |  |  | stoichiometry N [3]: 2 and 4; stoichiometry N [4]: 6 |
